What was measured:
[1] = tested on: cultured human mast cells (CHMC); assay: CHMC low cell density IgE activation: tryptase and LTC4 assays; format: cell-based; conditions: read-out: CHMC anti-IgE Tryptase
Summary of the method: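 Cultured human mast cells at low density (1000-1500 per well) rested 1 h at 37° C, then stimulated with anti-IgE for 30 min at 37° C. Supernatant tryptase measured with fluorogenic substrate (30 min, room temperature); LTC4 quantified by ELISA on diluted supernatant.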

[2] = tested on: cultured human mast cells (CHMC); assay: CHMC low cell density ionomycin activation: tryptase assay; format: cell-based; conditions: read-out: CHMC Ionomycin Tryptase
[3] = Homo sapiens, Mast cell, Low Density CHMC, anti-IgE activation, tryptase readout
[4] = Homo sapiens, Mast cell, Low Density CHMC, ionomycin activation, tryptase readout
[5] = Low Density CHMC, anti-IgE activation, tryptase readout
[6] = Low Density CHMC, ionomycin activation, tryptase readout

SMILES	IC50 [1, 3] [µM]	IC50 [2, 4] [µM]	other results
COc1ccc(C)c(Nc2ncc(F)c(Nc3ccc4c(c3)OCCO4)n2)c1 [Compound R926896, N4-(3,4-Ethylenedioxyphenyl)-5-fluoro-N2-(5-methoxy-2-methylphenyl)-2,4-pyrimidinediamine]	1.62	> 10	–
Cc1ccc(F)c(Nc2ncc(F)c(Nc3ccc4c(c3)OCCO4)n2)c1 [Compound R926897, N4-(3,4-Ethylenedioxyphenyl)-5-fluoro-N2-(2-fluoro-5-methylphenyl)-2,4-pyrimidinediamine]	1.73	> 10	–
Fc1cc(F)cc(Nc2ncc(F)c(Nc3ccc4c(c3)OCCO4)n2)c1 [Compound R926898, N4-(3,4-Ethylenedioxyphenyl)-5-fluoro-N2-(3,5-difluorophenyl)-2,4-pyrimidinediamine]	1.1	> 10	–
Fc1cnc(Nc2ccc(SC(F)(F)F)cc2)nc1Nc1ccc2c(c1)OCCO2 [Compound R926899, N4-(3,4-Ethylenedioxyphenyl)-5-fluoro-N2-(4-trifluoromethylthiophenyl)-2,4-pyrimidinediamine]	1.1	> 10	–
CCNC(=O)Oc1cccc(Nc2ncc(F)c(Nc3cccc(O)c3)n2)c1 [Compound R926928, N2-[3-[(N-Ethylamino)carbonyloxy]phenyl]-5-fluoro-N4-(3-hydroxyphenyl)-2,4-pyrimidinediamine]	–	–	IC50 ([1]; Homo sapiens, Mast cell): 0.575 µM; IC50 ([2]; Homo sapiens, Mast cell): > 10 µM
Oc1cccc(Nc2ncc(F)c(Nc3ccc4[nH]ccc4c3)n2)c1 [Compound R926932, 5-Fluoro-N2-(3-hydroxyphenyl)-N4-[(1H)-indol-5-yl]-2,4-pyrimidinediamine]	0.31	> 10	–
CNC(=O)COc1cccc(Nc2ncc(F)c(Nc3ccc4c(c3)C=CCC4)n2)c1 [Compound R926944, 5-Fluoro-N4-(3,4-dihydronaphthalen-7-yl)-N2-[3-[(N-methylamino)carbonylmethyleneoxy]phenyl]-2,4-pyrimidinediamine]	–	–	IC50 [1, 5]: 0.225 µM; IC50 [2, 6]: 99 µM
COc1ccc(Nc2nc(Nc3cccc(O)c3)ncc2F)cc1Cl [Compound R926945, N4-(3-Chloro-4-methoxyphenyl)-5-fluoro-N2-(3-hydroxyphenyl)-2,4-pyrimidinediamine]	0.457	> 10	–
CNC(=O)COc1cccc(Nc2ncc(F)c(Nc3ccc4c(c3)C(=NO)CCC4)n2)c1 [Compound R926948, 5-Fluoro-N4-(1,2,3,4-tetrahydro-1-hydroxyiminonaphthalen-7-yl)-N2-[3-[(N-methylamino)carbonylmethyleneoxy]phenyl]-2,4-pyrimidinediamine]	–	–	IC50 [1, 5]: 0.246 µM; IC50 [2, 6]: > 10 µM
COC(=O)C1Cc2cc(Nc3ncc(F)c(Nc4ccc(OC)c(Cl)c4)n3)ccc2O1 (centres unmarked) [Compound R926951, N4-(3-Chloro-4-methoxyphenyl)-5-fluoro-N2-[2,3-dihydro-2-(methoxycarbonyl)benzofuran-5-yl]-2,4-pyrimidinediamine]	0.183	> 10	–
COC(=O)C1Cc2cc(Nc3ncc(F)c(Nc4ccc(OC(F)(F)F)c(Cl)c4)n3)ccc2O1 (centres unmarked) [Compound R926953, N4-(3-Chloro-4-trifluoromethoxyphenyl)-5-fluoro-N2-[2,3-dihydro-2-(methoxycarbonyl)benzofuran-5-yl]-2,4-pyrimidinediamine]	0.049	> 10	–
CNC(=O)C1Cc2cc(Nc3ncc(F)c(Nc4ccc(OC(F)(F)F)c(Cl)c4)n3)ccc2O1 (centres unmarked) [Compound R926954, N4-(3-Chloro-4-trifluoromethoxyphenyl)-5-fluoro-N2-[2,3-dihydro-2-[(N-methylamino)carbonyl]benzofuran-5-yl]-2,4-pyrimidinediamine]	0.284	> 10	–
CNC(=O)C1Cc2cc(Nc3ncc(F)c(Nc4ccc(OC)c(Cl)c4)n3)ccc2O1 (centres unmarked) [Compound R926955, N4-(3-Chloro-4-methoxyphenyl)-5-fluoro-N2-[2,3-dihydro-2-[(N-methylamino)carbonyl]benzofuran-5-yl]-2,4-pyrimidinediamine]	0.36	> 10	–
Oc1cccc(Nc2ncc(F)c(Nc3ccc(Cl)cn3)n2)c1 [Compound R927020, N4-(5-Chloropyridin-2-yl)-5-fluoro-N2-(3-hydroxyphenyl)-2,4-pyrimidinediamine]	1.32	> 10	–
CNC(=O)COc1cccc(Nc2ncc(F)c(Nc3ccc(OCCO)nc3)n2)c1 [Compound R927023, 5-Fluoro-N4-[2-(2-hydroxyethyleneoxy)pyridin-5-yl]-N2-[3-(N-methylamino)carbonylmethyleneoxyphenyl]-2,4-pyrimidinediamine]	–	–	IC50 [1, 5]: 0.918 µM; IC50 [2, 6]: > 10 µM
COC(=O)c1cc2cc(Nc3ncc(F)c(Nc4ccc(Cl)cc4)n3)ccc2o1 [Compound R927026, N4-(4-Chlorophenyl)-5-fluoro-N2-(2-methoxycarbonylbenzofuran-5-yl)-2,4-pyrimidinediamine]	> 10	> 10	–
COC(=O)c1cc2cc(Nc3ncc(F)c(Nc4ccc(Cl)c(Cl)c4)n3)ccc2o1 [Compound R927027, N4-(3,4-Dichlorophenyl)-5-fluoro-N2-(2-methoxycarbonylbenzofuran-5-yl)-2,4-pyrimidinediamine]	> 10	> 10	–
COc1ccc(-c2ccccc2)cc1Nc1ncc(C)c(Nc2cc(-c3ccccc3)ccc2OC)n1 [Compound R935000, N2,N4-Bis(2-methoxy-5-phenylphenyl)-5-methyl-2,4-pyrimidinediamine]	> 10	> 10	–
COc1ccc(C(Nc2ncc(F)c(NC(c3ccc(OC)cc3)c3ccc(OC)cc3)n2)c2ccc(OC)cc2)cc1 [Compound R935004, N2,N4-Bis[[di-(4-methoxyphenyl)]methyl]-5-fluoro-2,4-pyrimidinediamine]	> 10	> 10	–
Fc1cnc(NC(c2ccccc2)c2ccccc2)nc1NC(c1ccccc1)c1ccccc1 [Compound R935005, N2,N4-Bis(diphenylmethyl)-5-fluoro-2,4-pyrimidinediamine]	> 10	> 10	–
Fc1cnc(NC(c2ccc(Cl)cc2)c2ccc(Cl)cc2)nc1NC(c1ccc(Cl)cc1)c1ccc(Cl)cc1 [Compound R935006, N2,N4-Bis[di-(4-chlorophenyl)methyl]-5-fluoro-2,4-pyrimidinediamine]	10	9.8	–
Oc1cccc(Nc2ncc(F)c(NC(c3ccc(Cl)cc3)c3ccc(Cl)cc3)n2)c1 [Compound R935019, 5-Fluoro-N2-(3-hydroxyphenyl)-N4-[di-(4-chlorophenyl)methyl]-2,4-pyrimidinediamine]	8.8	> 10	–
Oc1cccc(Nc2ncc(F)c(NC3c4ccccc4-c4ccccc43)n2)c1 [Compound R935020, N4-(Fluoren-9-yl)-5-fluoro-N2-(3-hydroxyphenyl)-2,4-pyrimidinediamine]	> 10	> 10	–
COC(=O)c1cc(Nc2nc(Nc3cccc(O)c3)ncc2Br)cn1C [Compound R935025, 5-Bromo-N2-(3-hydroxyphenyl)-N4-(N-methyl-2-carbomethoxypyrrol-4-yl)-2,4-pyrimidinediamine]	1.04	> 10	–
Nc1nc(Nc2cccc(O)c2)ncc1Br [Compound R935029, 4-Amino-5-bromo-N2-(3-hydroxyphenyl)-2-pyrimidineamine]	2.83	> 10	–
